# Experimental data from patent publication US8247211B2, “Glycopeptide antibiotics” (American Cyanamid Company, priority 2001, dated 2012).
# Assays:
# Experiment in all cases: In vitro antibacterial evaluation: minimum inhibitory concentration (MIC), broth dilution method
# Assay type in all cases: cell-based
# Enterococcus sp. = conditions: 18 hours at 35° C.
# Summary of the method: (§1)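 NCCLS M7-A2 broth dilution; Muller-Hinton II […]; 5×10^5 CFU/mL; 64-0.06 μg/mL. MIC = lowest concentration with no growth.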
# Escherichia coli = conditions: 18 hours at 35° C.
# Summary of the method: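 Following NCCLS approved standard M7-A2, compounds are serially diluted from 64 to 0.06 μg/mL in Muller-Hinton II […] and inoculated at 5×10^5 CFU/mL; the MIC is the minimum concentration at which growth is inhibited.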
# Streptococcus sp. = conditions: 18 hours at 35° C.
# Summary of the method: as §1
# Staphylococcus sp. = conditions: for MIC Staphylococcus aureus (ATCC 29213): strain ATCC 29213; for MIC Staphylococcus aureus (GC 1131): strain GC 1131; for MIC Staphylococcus aureus (GC 3051): strain GC 3051; for MIC Staphylococcus aureus (GC 3053): strain GC 3053; for MIC Staphylococcus aureus (GC 4541): strain GC 4541; for MIC Staphylococcus aureus (GC 4542): strain GC 4542; for MIC Staphylococcus aureus-SMITH (GC 4543): strain GC 4543; for MIC Staphylococcus aureus (GC 4544): strain GC 4544; for MIC Staphylococcus aureus (GC 4545): strain GC 4545; for MIC Staphylococcus haemolyticus (GC 4546): strain GC 4546; for MIC Coagulase Negative Staphylococcus (GC 4547): strain GC 4547; for MIC Coagulase Negative Staphylococcus (GC 4548): strain GC 4548; for MIC Coagulase Negative Staphylococcus (GC 4549): strain GC 4549; for MIC Coagulase Negative Staphylococcus (GC 4551): strain GC 4551
# Summary of the method: as §1
# [1] = Enterococcus faecalis (ATCC 29212)
# [2] = Enterococcus faecalis (GC 2242)
# [3] = Enterococcus faecalis (GC 2691)
# [4] = Enterococcus faecalis (GC 3059)
# [5] = Enterococcus faecalis (GC 4552)
# [6] = Enterococcus faecalis (GC 4553)
# [7] = Enterococcus faecalis (GC 4554)
# [8] = Enterococcus faecalis (GC 6189)
# [9] = broth dilution, inoculum 5×10^5 CFU/mL
# [10] = Streptococcus agalactiae (GC 4564)
# [11] = Streptococcus pneumoniae (ATCC 6301)
# [12] = Streptococcus pneumoniae (GC 1894)
# [13] = Streptococcus pneumoniae (GC 4565)
# [14] = Streptococcus pyogenes (GC 4563)
smiles,measurement,setting,value
"CC(c1ccc(Cl)cc1)C1NC(=O)CNC(=O)C(CO)NC(=O)C(C(O)C2CNC(=N)N2C2OC(CO)C(O)C(O)C2O)NC(=O)C(C(O)C2CNC(=N)N2)NC(=O)C(Cc2ccc(OC3OC(CO)C(OC4OC5COC(c6ccccc6)OC5C(O)C4O)C(O)C3O)cc2)NC1=O (stereo not drawn) [Example 195, Cyclo[glycyl-4-chloro-β-methylphenylalanyl-O-[4-O-(4,6-O-benzylidenehexopyranosyl)-hexopyranosyl]tyrosyl-3-(2-iminoimidazolidin-4-yl)seryl-3-(3-hexopyranosyl-2-iminoimidazolidin-4-yl)serylseryl]]",MIC Enterococcus avium (GC 4558),Enterococcus sp.; Enterococcus avium (GC 4558),0.5 µg/mL
same,MIC Enterococcus faecalis (ATCC 29212),Enterococcus sp.; [1],0.5 µg/mL
same,MIC Enterococcus faecalis (GC 2242),Enterococcus sp.; [2],0.5 µg/mL
same,MIC Enterococcus faecalis (GC 2691),Enterococcus sp.; [3],0.5 µg/mL
same,MIC Enterococcus faecalis (GC 3059),Enterococcus sp.; [4],0.5 µg/mL
same,MIC Enterococcus faecalis (GC 4552),Enterococcus sp.; [5],0.5 µg/mL
same,MIC Enterococcus faecalis (GC 4553),Enterococcus sp.; [6],0.5 µg/mL
same,MIC Enterococcus faecalis (GC 4554),Enterococcus sp.; [7],0.5 µg/mL
same,MIC Enterococcus faecalis (GC 6189),Enterococcus sp.; [8],0.5 µg/mL
same,MIC Enterococcus faecium (GC 2243),Enterococcus sp.; Enterococcus faecium (GC 2243),0.5 µg/mL
same,MIC Enterococcus faecium (GC 4556),Enterococcus sp.; Enterococcus faecium (GC 4556),0.5 µg/mL
same,MIC Enterococcus faecium (GC 4557),Enterococcus sp.; Enterococcus faecium (GC 4557),0.5 µg/mL
same,MIC Enterococcus avium (GC 4558),Enterococcus sp.; [9],0.5 µg/mL
same,MIC Enterococcus faecalis (ATCC 29212),Enterococcus sp.; [9],0.5 µg/mL
same,MIC Enterococcus faecalis (GC 2242),Enterococcus sp.; [9],0.5 µg/mL
same,MIC Enterococcus faecalis (GC 2691),Enterococcus sp.; [9],0.5 µg/mL
same,MIC Enterococcus faecalis (GC 3059),Enterococcus sp.; [9],0.5 µg/mL
same,MIC Enterococcus faecalis (GC 4552),Enterococcus sp.; [9],0.5 µg/mL
same,MIC Enterococcus faecalis (GC 4553),Enterococcus sp.; [9],0.5 µg/mL
same,MIC Enterococcus faecalis (GC 4554),Enterococcus sp.; [9],0.5 µg/mL
same,MIC Enterococcus faecalis (GC 6189),Enterococcus sp.; [9],0.5 µg/mL
same,MIC Enterococcus faecium (GC 2243),Enterococcus sp.; [9],0.5 µg/mL
same,MIC Enterococcus faecium (GC 4556),Enterococcus sp.; [9],0.5 µg/mL
same,MIC Enterococcus faecium (GC 4557),Enterococcus sp.; [9],0.5 µg/mL
same,MIC Escherichia coli (ATCC 25922),Escherichia coli,>0.5 µg/mL
same,MIC Escherichia coli (GC 4559),Escherichia coli,>0.5 µg/mL
same,MIC Escherichia coli (GC 4560),Escherichia coli,0.5 µg/mL
same,MIC Streptococcus agalactiae (GC 4564),Streptococcus sp.; [10],0.5 µg/mL
same,MIC Streptococcus pneumoniae (ATCC 6301),Streptococcus sp.; [11],0.12 µg/mL
same,MIC Streptococcus pneumoniae (GC 1894),Streptococcus sp.; [12],0.12 µg/mL
same,MIC Streptococcus pneumoniae (GC 4565),Streptococcus sp.; [13],0.12 µg/mL
same,MIC Streptococcus pyogenes (GC 4563),Streptococcus sp.; [14],0.12 µg/mL
same,MIC Streptococcus agalactiae (GC 4564),Streptococcus sp.; [9],0.5 µg/mL
same,MIC Streptococcus pneumoniae (ATCC 6301),Streptococcus sp.; [9],0.12 µg/mL
same,MIC Streptococcus pneumoniae (GC 1894),Streptococcus sp.; [9],0.12 µg/mL
same,MIC Streptococcus pneumoniae (GC 4565),Streptococcus sp.; [9],0.12 µg/mL
same,MIC Streptococcus pyogenes (GC 4563),Streptococcus sp.; [9],0.12 µg/mL
same,MIC Staphylococcus aureus (ATCC 29213),Staphylococcus sp.,0.5 µg/mL
same,MIC Staphylococcus aureus (GC 1131),Staphylococcus sp.,0.5 µg/mL
same,MIC Staphylococcus aureus (GC 3051),Staphylococcus sp.,0.5 µg/mL
same,MIC Staphylococcus aureus (GC 3053),Staphylococcus sp.,0.5 µg/mL
same,MIC Staphylococcus aureus (GC 4541),Staphylococcus sp.,0.5 µg/mL
same,MIC Staphylococcus aureus (GC 4542),Staphylococcus sp.,0.5 µg/mL
same,MIC Staphylococcus aureus-SMITH (GC 4543),Staphylococcus sp.,0.5 µg/mL
same,MIC Staphylococcus aureus (GC 4544),Staphylococcus sp.,0.5 µg/mL
same,MIC Staphylococcus aureus (GC 4545),Staphylococcus sp.,0.5 µg/mL
same,MIC Staphylococcus haemolyticus (GC 4546),Staphylococcus sp.,2 µg/mL
same,MIC Coagulase Negative Staphylococcus (GC 4547),Staphylococcus sp.,4 µg/mL
same,MIC Coagulase Negative Staphylococcus (GC 4548),Staphylococcus sp.,2 µg/mL
same,MIC Coagulase Negative Staphylococcus (GC 4549),Staphylococcus sp.,1 µg/mL
same,MIC Coagulase Negative Staphylococcus (GC 4551),Staphylococcus sp.,4 µg/mL
same,MIC Coagulase Negative Staphylococcus (GC 6257),Staphylococcus sp.; strain GC 6257,2 µg/mL
"N=C1NCC(C(O)C2NC(=O)C(Cc3ccc(OC4OC(CO)C(OC5OC6COC(CCc7ccccc7)OC6C(O)C5O)C(O)C4O)cc3)NC(=O)C(CC3CCCCC3)NC(=O)CNC(=O)C(CO)NC(=O)C(C(O)C3CNC(=N)N3C3OC(CO)C(O)C(O)C3O)NC2=O)N1 (stereo not shown) [Example 198, Cyclo[3-cyclohexylalanyl-O-[4-O-[4,6-O-(3-phenylpropylidene)hexopyranosyl]hexopyranosyl]tyrosyl-3-(2-iminoimidazolidin-4-yl)seryl-3-(3-hexopyranosyl-2-iminoimidazolidin-4-yl)serylserylglycyl]]",MIC Enterococcus avium (GC 4558),Enterococcus sp.; Enterococcus avium (GC 4558),1 µg/mL
same,MIC Enterococcus faecalis (ATCC 29212),Enterococcus sp.; [1],1 µg/mL
same,MIC Enterococcus faecalis (GC 2242),Enterococcus sp.; [2],1 µg/mL
same,MIC Enterococcus faecalis (GC 2691),Enterococcus sp.; [3],1 µg/mL
same,MIC Enterococcus faecalis (GC 3059),Enterococcus sp.; [4],1 µg/mL
same,MIC Enterococcus faecalis (GC 4552),Enterococcus sp.; [5],1 µg/mL
same,MIC Enterococcus faecalis (GC 4553),Enterococcus sp.; [6],1 µg/mL
same,MIC Enterococcus faecalis (GC 4554),Enterococcus sp.; [7],1 µg/mL
same,MIC Enterococcus faecalis (GC 6189),Enterococcus sp.; [8],1 µg/mL
same,MIC Enterococcus faecium (GC 2243),Enterococcus sp.; Enterococcus faecium (GC 2243),1 µg/mL
same,MIC Enterococcus faecium (GC 4556),Enterococcus sp.; Enterococcus faecium (GC 4556),1 µg/mL
same,MIC Enterococcus faecium (GC 4557),Enterococcus sp.; Enterococcus faecium (GC 4557),1 µg/mL
same,MIC Enterococcus avium (GC 4558),Enterococcus sp.; [9],1 µg/mL
same,MIC Enterococcus faecalis (ATCC 29212),Enterococcus sp.; [9],1 µg/mL
same,MIC Enterococcus faecalis (GC 2242),Enterococcus sp.; [9],1 µg/mL
same,MIC Enterococcus faecalis (GC 2691),Enterococcus sp.; [9],1 µg/mL
same,MIC Enterococcus faecalis (GC 3059),Enterococcus sp.; [9],1 µg/mL
same,MIC Enterococcus faecalis (GC 4552),Enterococcus sp.; [9],1 µg/mL
same,MIC Enterococcus faecalis (GC 4553),Enterococcus sp.; [9],1 µg/mL
same,MIC Enterococcus faecalis (GC 4554),Enterococcus sp.; [9],1 µg/mL
same,MIC Enterococcus faecalis (GC 6189),Enterococcus sp.; [9],1 µg/mL
same,MIC Enterococcus faecium (GC 2243),Enterococcus sp.; [9],1 µg/mL
same,MIC Enterococcus faecium (GC 4556),Enterococcus sp.; [9],1 µg/mL
same,MIC Enterococcus faecium (GC 4557),Enterococcus sp.; [9],1 µg/mL
same,MIC Escherichia coli (ATCC 25922),Escherichia coli,32 µg/mL
same,MIC Escherichia coli (GC 4559),Escherichia coli,32 µg/mL
same,MIC Escherichia coli (GC 4560),Escherichia coli,1 µg/mL
same,MIC Streptococcus agalactiae (GC 4564),Streptococcus sp.; [10],<0.12 µg/mL
same,MIC Streptococcus pneumoniae (ATCC 6301),Streptococcus sp.; [11],<0.12 µg/mL
same,MIC Streptococcus pneumoniae (GC 1894),Streptococcus sp.; [12],<0.12 µg/mL
same,MIC Streptococcus pneumoniae (GC 4565),Streptococcus sp.; [13],<0.12 µg/mL
same,MIC Streptococcus pyogenes (GC 4563),Streptococcus sp.; [14],<0.12 µg/mL
same,MIC Streptococcus agalactiae (GC 4564),Streptococcus sp.; [9],<0.12 µg/mL
same,MIC Streptococcus pneumoniae (ATCC 6301),Streptococcus sp.; [9],<0.12 µg/mL
same,MIC Streptococcus pneumoniae (GC 1894),Streptococcus sp.; [9],<0.12 µg/mL
same,MIC Streptococcus pneumoniae (GC 4565),Streptococcus sp.; [9],<0.12 µg/mL
same,MIC Streptococcus pyogenes (GC 4563),Streptococcus sp.; [9],<0.12 µg/mL
same,MIC Staphylococcus aureus (ATCC 29213),Staphylococcus sp.,0.5 µg/mL
same,MIC Staphylococcus aureus (GC 1131),Staphylococcus sp.,1 µg/mL
same,MIC Staphylococcus aureus (GC 3051),Staphylococcus sp.,0.5 µg/mL
same,MIC Staphylococcus aureus (GC 3053),Staphylococcus sp.,0.5 µg/mL
same,MIC Staphylococcus aureus (GC 4541),Staphylococcus sp.,0.5 µg/mL
same,MIC Staphylococcus aureus (GC 4542),Staphylococcus sp.,0.25 µg/mL
same,MIC Staphylococcus aureus-SMITH (GC 4543),Staphylococcus sp.,0.5 µg/mL
same,MIC Staphylococcus aureus (GC 4544),Staphylococcus sp.,0.5 µg/mL
same,MIC Staphylococcus aureus (GC 4545),Staphylococcus sp.,0.5 µg/mL
same,MIC Staphylococcus haemolyticus (GC 4546),Staphylococcus sp.,0.5 µg/mL
same,MIC Coagulase Negative Staphylococcus (GC 4547),Staphylococcus sp.,1 µg/mL
same,MIC Coagulase Negative Staphylococcus (GC 4548),Staphylococcus sp.,>0.12 µg/mL
same,MIC Coagulase Negative Staphylococcus (GC 4549),Staphylococcus sp.,0.5 µg/mL
same,MIC Coagulase Negative Staphylococcus (GC 4551),Staphylococcus sp.,0.5 µg/mL
